Target: T1, Alpha-amylase 1A (Homo sapiens, UniProt P0DUB6)
T1 sequence (P0DUB6 whole entry): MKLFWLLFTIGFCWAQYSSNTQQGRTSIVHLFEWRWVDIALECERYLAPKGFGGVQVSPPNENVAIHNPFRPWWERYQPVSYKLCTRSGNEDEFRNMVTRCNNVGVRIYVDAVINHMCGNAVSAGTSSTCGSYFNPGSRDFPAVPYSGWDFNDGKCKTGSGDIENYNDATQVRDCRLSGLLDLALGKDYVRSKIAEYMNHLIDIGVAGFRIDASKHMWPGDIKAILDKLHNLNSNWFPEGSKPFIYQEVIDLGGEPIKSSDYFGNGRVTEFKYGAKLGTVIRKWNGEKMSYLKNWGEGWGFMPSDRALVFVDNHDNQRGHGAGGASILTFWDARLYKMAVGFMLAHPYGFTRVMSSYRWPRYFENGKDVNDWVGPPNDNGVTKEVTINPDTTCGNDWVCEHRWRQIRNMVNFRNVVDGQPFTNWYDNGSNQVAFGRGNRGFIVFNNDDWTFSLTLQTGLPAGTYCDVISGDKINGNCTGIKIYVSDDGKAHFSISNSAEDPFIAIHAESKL
Assay: Inhibition of Alpha-amylase (unknown origin)

Row | IC50 [nM] | SMILES
1 | 0.13 | N#Cc1ccccc1-c1ccc(N2C(=O)SC(=Cc3ccccc3Oc3ccccc3)C2=O)cc1
2 | 44 | C=CCN1C(=O)SC(=Cc2ccc(Cl)cc2Cl)C1=O
3 | 10 | O=C(O)CN1C(=O)SC(=Cc2ccc3c(c2)OCO3)C1=O
4 | 4.1 | O=C(O)CN1C(=O)SC(=Cc2cn(-c3ccccc3)nc2-c2ccc([N+](=O)[O-])cc2)C1=O

— BindingDB's records for PubMed 38252989 (IK Gujral Punjab Technical University)
